A value given as a limit tells only on which side of the number the result lay.

What is called melting point is the temperature, or range, at which the solid turns liquid.

The compound `CCOC(=O)CCC(=O)NCc1ccc(N)cc1` registered a melting point of 62 to 64 °C.
Next, `CC(C)(C)c1ccc(S(=O)(=O)N2c3ccccc3C[C@H]2C(=O)NCc2cccc(O)c2)cc1`: 94 °C; `CC(=O)Nc1ccc2nc3[nH]c(=O)[nH]c3cc2c1`: more than 320 °C.
On to `O=C(c1ccc(Br)s1)N(Cc1cccc(O)c1)C1CC1`, for which the melting point came to 128 °C.
Next, `c1ccc(C(c2ccccc2)N2C(=NCCCn3ccnc3)c3cccc4cccc2c34)cc1`: 142 to 143 °C.
Turning to `C[C@]12CC(=C(F)F)[C@H]3[C@@H](CCC4=CC(=O)CC[C@@H]43)[C@@H]1CCC2=O`, the melting point was 158 to 164 °C.
`Cc1c(F)c(N2CCN(C=O)C(C)C2)cc2c1C(=O)C(C=O)CN2C1CC1` (stereo not given): the melting point fell in the range of 148 to 150 °C.
For the compound `OC[C@H]1O[C@@H]1c1cc(F)cc(F)c1`, the melting point was 48 to 50 °C.
Next, `COCc1cc(C(C)(C)C)cc(C(C)(C)C)c1O`: 36 to 39 °C; `CN(C)C1(c2ccccc2)CCC(=CC(=O)NCCCc2ccccc2)CC1` (stereo not given): 140 to 142 °C; `O=c1[nH]c2ccccc2n1CCN1CCN(c2cc(O)cc(C(F)(F)F)c2)CC1`: 170 °C.
Next, `Cc1cc(S(=O)(=O)N2CCCCC2)c(O)c2c1CCC2=O`: 188 to 189 °C; `Cc1ccc(S(=O)(=O)N2CCN(C(=O)c3ccc(Nc4ccnc5cc(C(F)(F)F)ccc45)cc3)CC2)cc1`: 215 to 217 °C; `c1ccc2c(c1)NCS2`: 60 to 62 °C.
For `CCNC(=O)[C@@H]1CCCN1C(=O)[C@H](C)NC(=O)C1CCCCC1` the value was 190 to 192 °C; for `CS(=O)(=O)NCc1ccc([N+](=O)[O-])cc1`, 136 to 139 °C.
`CN1CC(OCC=C(Cl)Cl)(C(F)(F)F)c2cc(Cl)ccc2NC1=O` (stereo not given) came in with a melting point of 149 to 150 °C.
Next, `CC(C)Cn1c(=O)n(C)c(=O)c2c(SCCCO)c(Cc3cccc(F)c3)sc21`: 99 to 100 °C; `O=C1N[C@H](CO)C[C@H]1C1CCCCC1`: 96 to 97 °C.
Next, `O=c1[nH]c2cc(Cl)ccc2c(O)c1-c1cccc(/C=C/c2ccccc2)c1`: 320 to 324 °C.
Next, `CC1(C)CC(OC(=O)NNC(=O)OC2CC(C)(C)N(OC3CCCCC3)C(C)(C)C2)CC(C)(C)N1OC1CCCCC1`: 150 to 152 °C.
`CCC12CCC3C4CCC(=O)C=C4CCC3C1CCC2OCCN(C)C` (stereo not given) showed a melting point of 87 to 88 °C.
Next, `Cc1cccc2c(=O)[nH]c(C3CCN(CCCO)CC3)cc12`: 197 to 199 °C.
Next, `CC(CC(C#N)(c1ccccc1)c1ccccn1)N1CCN(C)CC1` (stereo not given): 89 to 90 °C.
Next, `COc1cc2nccc(CC(=O)O)c2cc1OC`: more than 250 °C.
The compound `CCCCOc1cc(C(N)=O)nn1Cc1ccc(Cl)cc1` had a melting point of 137 to 138 °C.
Next, `CCOC(=O)c1nc(N)nc(N)c1-c1ccc(Cl)cc1Cl`: 178 °C; `Cn1c(CC(=O)O)ccc1C(=O)c1ccc(Cl)cc1Cl`: 165 to 166 °C.
For `Cc1ccc(-c2ccc3c(c2)C=C(C(=O)Nc2ccc(CN(C)C4CCOCC4)cc2)CO3)cc1` the value was 143 to 145 °C.
On to `O=C(O)c1ccc(OC(F)F)c2oc3ccc(C(F)(F)F)cc3c12`, for which the melting point came out at 280 °C.
Next, `CC(CC(=O)O)(C(=O)O)c1ccc(F)cc1` (stereo not given): 149 to 152 °C.
For `O=C(c1cccs1)c1cnc2[nH]ncc2c1NC1CC1` the value was 268 to 270 °C; for `CC1(C)C(=O)ON(Cc2cc(Cl)ccc2Cl)C1=O`, 78 to 80 °C; for `C[C@H](C1CCCCC1)N1C(=O)c2c(F)c(F)c(F)c(F)c2C1=O`, 147 to 148 °C.
For `CCOC(=O)c1c(-c2ccc(Cl)s2)ccnc1C(C(=O)OCC)c1cc(OC)cc(OC)n1` (stereo not given) the value was 127 to 132 °C; for `COc1ccc(S(=O)(=O)Nc2cc(C(=O)Nc3ccccc3)ccc2OC)cc1`, 184 to 186 °C; for `CN(C)C=C1CCc2ccn(Cc3ccccc3)c2C1=O`, 116 to 118 °C.
`CN(C(=O)Nc1cccnc1)c1ccc2c(ccn2C)c1` showed a melting point of 168 to 170 °C.
For `Clc1ccc(CO[C@H]2CO[C@@H](c3ccccc3)OC2)cc1Cl` the value was 77 to 78 °C; for `CCOC(=O)Nc1ccc(OC)cc1[N+](=O)[O-]`, 56 to 57 °C.
`CNCC1CN(c2c(F)cc3c(=O)c(C(=O)O)cn(C4CC4)c3c2F)CC1C` (stereo not given): the melting point lay within 252 to 254 °C.
For `COc1ccc(-n2nc(CCCNO)cc2-c2ccc(Cl)cc2)cc1` the value was 91 to 93 °C; for `Cc1ncn(-c2ccc(C=O)cc2)n1`, 125 to 128 °C; for `CCCCCc1cc(O)c2c(c1)OC(C)(C)[C@@H]1CCC(=O)C[C@H]21` (relative stereo), 120 to 134 °C.
Next, `CCCCCCCCCCCCCCOc1cc(C(=O)Cl)ccc1OC`: 60 to 61 °C; `COc1cc(N)c(Cl)cc1C(=O)NC1CCN(CCCOc2ccc(F)cc2)CC1(F)F` (stereo not given): 126 °C.
Next, `Nc1c(O)c(Br)cc(Br)c1C(=O)O`: 162 to 164 °C.
With `CCOC(=O)c1cc(NC(=O)C(Cc2ccc(Cl)c(Cl)c2)NC(=O)OC(C)(C)C)c[nH]1` (stereo not given), the melting point was 175 to 185 °C.
For `COc1ccc(-c2c(CO)c(CO)c3n2-c2ccc(OC)cc2C3)cc1` the value was 186 to 187 °C; for `CCOC(=O)c1cc([N+](=O)[O-])c(C(=O)O)cc1C(=O)O`, 189 to 191 °C.
For `Cc1ncc2n1-c1ccccc1N(c1ccccc1)C(=O)C2` the value was 217 to 220 °C.
For `Nc1ccc(OCCCCCOc2ccc(N)cc2)cc1` the value was 78 to 79 °C; for `CC(C)(C)OC(=O)NC(=N)NC(=O)OC(C)(C)C`, 144 °C; for `COC(=O)c1cccc(NC(=O)C=C(c2ccc(Cl)cc2)c2ccc(Cl)cc2)c1`, 155 to 159 °C.
Take `O=C(O)CN1C(=O)C(=Cc2ccc3ccccc3c2)SC1=S`: the melting point was in the range of 257 to 264 °C.
Next, `COc1ccnc(N2CCN(C(=O)c3ccco3)CC2)n1`: 85 to 86 °C; `NC(=O)Cn1nccc1-c1ccc(Oc2ccc(F)cc2)cc1`: 168 to 169 °C.
Take `CC(=O)Nc1ccn(C2CCC(CO)O2)c(=O)n1` (stereo not given): the melting point was in the range of 143 to 145 °C.
Next, `CN(C)Cc1nc(C#N)nn1-c1ccc(Cl)cc1C(=O)c1ccccc1Cl`: 117 to 119 °C; `CN(C)C=Cc1ncc([N+](=O)[O-])n1CCN(C)C`: 81 to 82 °C.
Next, `O=C(Cc1ccc2ccccc2c1)N[C@H]1C[C@H](C(=O)O)Nc2cc(Cl)cc(Cl)c21` (relative stereo): 217 to 219 °C; `COc1c2c(c(OC)c(OC)c1OC)CC(CCCCCCCCOc1ccc(Cl)cc1)C2`: 38 to 42 °C.
For `CCOC(=O)c1cc2cc(OC(F)(F)F)cc(N(C)S(=O)(=O)c3cccs3)c2[nH]1` the value was 149 to 150 °C; for `Cn1c2ccccc2c(=O)c2c(Cl)cccc21`, 183 to 186 °C; for `CCOC(=O)c1cnn(C)c1C(=O)Nc1ccn2nc(Br)nc2c1`, 177 to 180 °C.

(Values after a melting point compilation (Tetko et al.; mined from patent text by program, amines drawn as free bases though some values may be those of a salt).)
